In test [1] the test system is adjuvant arthritis in rat. The experiment in a line: Chronic inflammation of adjuvant arthritis in rat. Type of test: in vivo. On the set-up: key to Clinical score Whole body: sum of hind/fore foot, ear, nose, tail scores; full score 8. On the procedure:
80 SPF SD rats were randomly divided into 8 groups. Rats in each group were lightly anesthetized with ether. Then, 0.1 mL of complete Freund's adjuvant containing inactivated Mycobacterium tuberculosis was injected subcutaneously into the left hind foot of the rats. Primary arthritis occurred in the left hind foot of the rat, and at about 13 days post-modeling, secondary arthritis occurred in the right hind foot. A blank control group was injected with an equal volume of physiological saline. The drug was administered 13 days after modeling. A methotrexate group was administered by injection every 5 days for 15 days, 4 times in total; the fusion protein I, protein II, protein III, protein IV, and protein V at high, medium and low doses (128 mg/kg, 32 mg/kg, 8 mg/kg) were administered by injection every 5 days for 15 days.
Using a foot volume measuring method, a marker was made with a fat-soluble marker at the left and right posterior ankle joint of each rat, and the left and right hind feet of the animal were respectively immersed in the volume measuring device. The immersion depth was bounded by the marker, and the reading value at the scale pipette of the device was the initial volume of the animal's left and right hind feet.
The day of modeling was considered as the 0th day and recorded as d0. The volume of the left hind foot (modeling foot) was measured from the first day d1 after modeling every 2 days. When the swelling occurred (i.e., secondary arthritis occurred) at the contralateral non-inflammatory foot (right hind foot), the administration was started. The volume of the left and right hind feet was measured every 2 days, and the degree of primary and secondary toe swelling was determined, which was calculated as follows:
Primary toe swelling (mL)=left hind foot volume on the day of measurement-initial volume of left hind foot
Secondary toe swelling (mL)=right hind foot volume on the day of measurement-initial volume of right hind foot 2. Clinical score
Systemic score: the systemic score was taken every 2 days after the onset of secondary inflammation.
Hind foot: no swelling=0 score, one hind foot swelling=1 score, two hind feet swelling=2 scores;
Forefoot: no swelling=0 score, one forefoot swelling=1 score, two forefeet swelling=2 scores;
Ear: no redness and nodules=0 score, redness or nodules in one ear=1 score, redness and nodules in both ears=2 scores;
Nose: no swelling=0 score, obvious swelling=1 score;
Tail: no nodules=0 score, with nodules=1 score; full score was 8 scores.
Arthritis index score: the arthritis index score was performed every 2 days after the onset of secondary inflammation.
The initial body weight of each group of rats was weighed before modeling. The body weight was measured every 2 days from d1 after modeling, from which the initial body weight was subtracted to obtain the weight gain of each group of rats.

Test [2] has as its system xylene-induced ear swelling in mice. The experiment in a line: Xylene-induced ear swelling in mice. The class given is in vivo. The conditions noted are these: 200 mg/kg (positive control). On the procedure: 80 Kunming mice were divided into 8 groups with 10 mice for each group and numbered. A physiological saline group was used as a blank control group, an aspirin group (200 mg/kg) was used as a positive control group, and fusion protein I, protein II, protein III, protein IV and protein V at high, medium and low doses (128, 32, 8 mg/kg) were used as experimental groups. Mice were administered once by injection, while EDSM needed to be administered twice a day for 5 consecutive days. The blank control group was given an equal volume of physiological saline. After the fifth day, 0.05 mL of xylene was applied to both sides of the right ears of the mice to induce inflammation, and the left ears were not applied and were normal ears. After 2 h, the mice were sacrificed by dislocation, and the ears were cut along the auricle. Ear pieces were taken with a puncher and weighed, and the swelling degree and swelling rate were calculated. Swelling degree=right ear piece weight-left ear piece weight, swelling rate=(swelling degree/left ear piece weight)×100%.

Test [3] concerns melanoma cell line B16F10. Description: MTT assay, proliferation of melanoma cell B16F10. The class given is cell-based. The conditions noted are these: dose 5 μg/mL. Here is the method:
(§1) The MTT assay was used to detect the inhibitory effect of the integrin blocker fusion protein obtained in Example 1 on the proliferation of various tumor cells, including melanoma cell B16F10, gastric cancer cell MGC-803, lung cancer cell A549, liver cancer cell Hep-G2, breast cancer cell MDA-MB-231, colon cancer cell HCT-116, human glioma U87, and cervical cancer cell Hela.
(§2) The tumor cells were cultured in a 5% CO2 incubator at 37° C. to a density of 90% or more, and collected by trypsinization. The cells were resuspended in the culture liquid and counted under a microscope. The cell concentration was adjusted to 3.0×10^4 cells/mL. The cell suspension was inoculated into a 96-well plate at 100 μL per well and cultured overnight in a 5% CO2 incubator at 37° C. […] After the cells were fully adhered, each dilution was added to a 96-well plate at 100 μL per well, respectively. […] 20 μL of 5 mg/mL MTT was added to each well of a 96-well plate, and incubation was continued for 4 hours. The medium was aspirated and 100 μL of DMSO per well were added to dissolve. The absorbance was measured at 570 nm with a microplate reader with a reference wavelength of 630 nm, and the proliferation inhibition (PI) was calculated. The formula is as follows: […]
(§3) where Ntest is the OD value of the test group and Ncontrol is the OD value of the blank control group.
(§4) The test was repeated 5 times independently. The results obtained from the test were calculated as mean±SD, and statistical t-test was performed. P<0.05 was considered as a significant difference, and P<0.01 was considered as an extremely significant difference.
Background: Formazan colour is commonly taken as a measure of viable cells.

The subject of test [4] is gastric cancer cell MGC-803. Description: MTT assay, proliferation of gastric cancer cell MGC-803. The class given is cell-based. The note with it: dose 5 μg/mL. On the procedure: as §1, §2, §3, §4
The subject of another test is lung cancer cell A549. The experiment in a line: MTT assay, proliferation of lung cancer cell A549. The class given is cell-based. The note with it: dose 5 μg/mL. On the procedure: as §1, §2, §3, §4
A further test has as its system liver cancer cell Hep-G2. The experiment in a line: MTT assay, proliferation of liver cancer cell Hep-G2. The note with it: dose 5 μg/mL. The class given is cell-based. On the procedure:
as §1, §2, §3, §4

Test [5] concerns breast cancer cell MDA-MB-231. Description: MTT assay, proliferation of breast cancer cell MDA-MB-231. The class given is cell-based. The conditions noted are these: dose 5 μg/mL. On the procedure:
as §1, §2, §3, §4

Test [6] has as its system colon cancer cells HCT-116. The experiment in a line: MTT assay, proliferation of colon cancer cell HCT-116. The class given is cell-based. The conditions noted are these: dose 5 μg/mL. Here is the method:
as §1, §2, §3, §4

The next test relates to human glioma U87. Description: MTT assay, proliferation of human glioma U87. The class given is cell-based. The conditions noted are these: dose 5 μg/mL. Here is the method: as §1, §2, §3, §4
The test system of test [7] is cervical cancer cell Hela. Description: MTT assay, proliferation of cervical cancer cell Hela. The class given is cell-based. The note with it: dose 5 μg/mL. Here is the method: as §1, §2, §3, §4
The test system of test [8] is human retinal vascular endothelial cell (HRCEC). The experiment in a line: MTT assay, proliferation of human retinal vascular endothelial cell (HRCEC). Type of test: cell-based. The note with it: 5 μg/mL (positive control), 48 hours. Here is the method: The activity of the integrin blocker polypeptide to inhibit proliferation of human retinal vascular endothelial cells was examined by MTT assay. HRCEC cells were cultured in a 5% CO2 incubator at 37° C. to a density of 90% or more, and then collected by trypsinization. The cells were resuspended in the culture liquid and counted under a microscope. The cell concentration was adjusted to 3.0×10^4 cells/mL. The cell suspension was inoculated into a 96-well plate at 100 μL per well and cultured in a 5% CO2 incubator at 37° C. overnight. […] After the cells were fully adhered, each dilution was added to a 96-well plate at 100 μL per well, respectively. […] 20 μL of 5 mg/mL MTT was added to each well of a 96-well plate, and incubation was continued for 4 hours. The medium was aspirated and 100 μL of DMSO was added per well for dissolution. The absorbance was measured at 570 nm with a microplate reader with a reference wavelength of 630 nm, and the proliferation inhibition (PI) was calculated. The formula was as follows: […]
as §3
The test was repeated 5 times independently. The results obtained from the test were calculated as mean±SD, and statistical t-test was performed. P<0.05 was considered as significant difference, and P<0.01 was considered as extremely significant difference.

Test [9] concerns human umbilical vein endothelial cells (HUVEC). The experiment in a line: Three-dimensional transwell assay, migration of HUVEC. Type of test: cell-based. The note with it: dose 8.0 · 10^−6 μg/mL. On the procedure:
Human umbilical vein endothelial cells (HUVECs) were cultured with endothelial cell culture fluid containing 5% fetal bovine serum and 1×ECGS in a 5% CO2 incubator at 37° C., to a confluence of 90% or more, and then inhibitory effects of fusion protein I, protein II, protein III, protein IV, and protein V on migration of endothelial cells were detected by transwell assay, in which only endothelial cells HUVEC of passage 2 to 8 were used, and the specific operation was as follows.
(1) 10 mg/mL Matrigel was diluted with a DMEM medium at a ratio of 1:4, coated on a transwell chamber membrane, and air-dried at room temperature.
(2) HUVEC cells cultured to logarithmic phase were digested with 0.2% EDTA, collected, washed twice with PBS, followed by resuspended in an endothelial cell culture liquid containing 0.1% BSA, counted under a microscope, and the cell concentration was adjusted to 1×10^5 cells/mL;
(3) Test solutions for each group were formulated and diluted to 100 μL with a cell culture liquid containing 0.1% BSA;
Groups were divided as follows:
Blank control group: a cell culture liquid containing no drug;
Endostar group: 5 mg/mL Endostar solution diluted to a predetermined concentration with a cell culture liquid containing no drug; […]
(4) The cells were inoculated into a transwell chamber at 100 μL per well, and test solutions for each group were added to the chamber. To a 24-well plate, 0.6 mL of endothelial cell culture liquid containing 5% fetal bovine serum and 1×ECGS was added to stimulate cell migration, and incubated at 5% CO2 for 24 h at 37° C.
(5) The culture liquid in the well was discarded. The cells were fixed with 90% alcohol at room temperature for 30 min, stained with 0.1% crystal violet for 10 min at room temperature, and rinsed with water. Un-migrated cells in the upper layer were gently wiped off by a cotton swab. The observation was carried out under microscope and four fields of view were selected for taking photos and counting. The migration inhibition (MI) was calculated according to the formula: […]
where Ntest is the migration cell number in the test group, and Ncontrol is the migration cell number in the blank control group.
The test was repeated 3 times independently. The results obtained from the test were calculated as mean±SD, and statistical t-test was performed. P<0.05 was considered as a significant difference, and P<0.01 was considered as an extremely significant difference.

With `CN(Cc1cnc2nc(N)nc(N)c2n1)c1ccc(C(=O)N[C@@H](CCC(=O)O)C(=O)O)cc1` [methotrexate, reference compound], in [1] (1 mg/kg (positive drug)), the Weight gain is given as 47.32 ± 17.20 g. Moreover, the “Clinical score Whole body” value in test [1] (1 mg/kg (positive drug), full score 8) amounted to 1.31 ± 0.17. The “Foot swelling degree Left” value in [1] (1 mg/kg (positive drug), left hind foot (primary inflammation)) is reported as 1.19 ± 0.20 mL. Moreover, the “Clinical score Arthritis index” value in [1] (1 mg/kg (positive drug), maximum score 16) came out at 2.00 ± 0.54. In test [1] (1 mg/kg (positive drug), right foot (secondary inflammation)), the “Foot swelling degree Right” value is 1.22 ± 0.13 mL. Further, in [1] (methotrexate group, injection every 5 days for 15 days), the “therapeutic effect on primary arthritis (primary toe swelling degree)” value is given as “the best effect”.

`CC(=O)Oc1ccccc1C(=O)O` [aspirin, reference compound]: the Swelling degree in test [2] (2 h after xylene, mice) worked out at 3.12 ± 0.34 mg. For the same compound, the PI in [2] (ear swelling vs control) came out at 53.08%.

In the case of `CC(=O)O[C@H]1C(=O)[C@@]2(C)[C@H]([C@H](OC(=O)c3ccccc3)[C@]3(O)C[C@H](OC(=O)[C@H](O)[C@@H](NC(=O)c4ccccc4)c4ccccc4)C(C)=C1C3(C)C)[C@]1(OC(C)=O)CO[C@@H]1C[C@@H]2O` [Taxol, reference compound], the “A570 nm/A630 nm” value in test [3] is 0.5996 ± 0.0139; in [4], 0.6011 ± 0.0148; in the test with lung cancer cell A549 it was 0.4269; with liver cancer cell Hep-G2, 0.3258; in [5] it was 0.4156 ± 0.0287; in test [6] it was 0.4103 ± 0.0287. Besides, the results for the “A570 nm/A630 nm” value (with human glioma U87; in [7]; in test [8]) were 0.2177 ± 0.0277, 0.2114 ± 0.0275 and 0.2387 ± 0.0257, respectively. In addition, the “PI (%)” value in test [3] worked out at 52.15%; in test [4] it was 50.81%; in the test with lung cancer cell A549, 55.93%; with liver cancer cell Hep-G2, 52.42%; in test [6], 53.39%; in the test on human glioma U87, 68.90%. Also, the “PI (%)” value in [7] amounted to 73.55%. The same compound displayed a PI in test [8] of 82.28%.

Take `CCN(CC)CCNC(=O)c1c(C)[nH]c(/C=C2\C(=O)Nc3ccc(F)cc32)c1C` [Sunitinib, reference compound]: in test [9], the “MI (%)” value came out at 82.13% and the Migration cell number came to 449.0 ± 153.86.

For the origin of these results see patent US11407811B2, “Fusion protein, preparation method therefor and use thereof” (JIANGSU RONGTAI BIOTECH CO., LTD., priority 2017, dated 2022).
